Assay results from patent US4139621A, “N-(4-substituted-3,5-dichloro-phenyl)-piperazines” (Beecham Group Limited, priority 1976, dated 1979).

Legend:
[1] = Shuttlebox (conditioned avoidance behaviour in the rat), % inhibition of crossing rate; format: in vivo
Description: (§1) 1-(3,4,5-Trichlorophenyl)piperazine hydrochloride [compound A] was tested in various conventional screens used for determining the effect of major tranquillizors. In these tests chlopromazine was used as a positive control. The results obtained were as follows:
(§2) The activity of Compound A in the anti-catapresan induced fighting test and the inhibition of conditioned avoidance responses in the shuttlebox tests indicate that Compound A has potential neuroleptic/anxiolytic activity in man.

[2] = Induction of catalepsy in the rat; format: in vivo
Description: as §1
catalepsy in 0% at 54% at
the rat. 40 mg/kg s.c. 10 mg/kg i.p.
as §2

[3] = Activity in man extrapolated from potency relative to chlorpromazine in animal tests; settings: orally, inferred from potency relative to chlorpromazine in animal tests
From the text: as §2

[4] = Anti-Catapresan test (anti-catapresan induced fighting test); format: in vivo; settings: po; mouse
Description: as §1, §2

| SMILES | % inhibition of crossing rate, Shuttlebox ([1]; 5 mg/kg p.o.) | cataleptic activity [2] | Induction of catalepsy ([2]; 40 mg/kg s.c.) | daily doses at which active in man [3] | ED50 [4] | % inhibition of crossing rate, Shuttlebox ([1]; 10 mg/kg p.o.) | Induction of catalepsy ([2]; 10 mg/kg i.p.) |
| --- | --- | --- | --- | --- | --- | --- | --- |
| Cl.Clc1cc(N2CCNCC2)cc(Cl)c1Cl [Compound A, 1-(3,4,5-Trichlorophenyl)piperazine hydrochloride] | -73% | lack of cataleptic activity | 0% | 0.2 to 10 mg/kg | 6 mg/kg |  |  |
| CN(C)CCCN1c2ccccc2Sc2ccc(Cl)cc21 [Chlorpromazine, chlorpromazine, reference compound] |  |  |  |  | 2.8 mg/kg | -67% | 54% |
